Experimental data reported in patent US5053398A, “Sulfated homopolysaccharides as anti-AIDS virus agents” (Taito Co., Ltd., priority 1988, dated 1991).
Entries after “also recorded” stand apart in the source; their conditions may differ. Read-outs that look alike come from different tables or passages of the source.

Legend:
[1] = test system: reverse transcriptase of AIDS virus; details: background; cited from earlier work
AIDS virus [2] = details: background; cited from earlier work
[3] = test system: spleen of a mouse (spleen cells); assay: Mitogenic activities (3H-thymidine uptake, mouse spleen cells); format: cell-based
Experimental: A spleen of a mouse was aseptically taken out and dispersed in a culture medium to obtain a cell suspension containing 3×10^6 cells/ml. The cells were subdivided into wells of a 96 well-microplate so as to adjust the cell number in each well to 3×10^5. A culture medium and a sample were added to each well, followed by culturing for 3 days. On the third day, 0.5 μCi of ^3 H-thymidine was added to each well, and culturing was conducted for further 7 hours. Then, the cells were harvested and thoroughly washed, and the amount of ^3 H-thymidine taken into the cells was measured by a liquid scintillation counter.

Sarcoma 180 cells = assay: Anti-tumor activities, Sarcoma 180 in mice; format: in vivo
Experimental: 2×10^6 Sarcoma 180 cells were transplanted subcutaneously into the groins of mice. Twenty four hours later, 0.05 ml of a 0.5% PBS solution of schizophyllan sulfate was administered to a rear femoral muscle. Thirty days later, the mice were killed and dissected, and tumors were taken out and weighed. The tumor inhibition rates were culculated by the following equation. [formula] where A and B denote the average tumor weights (g) of the control group and the treated group.
Each group consisted of 6 mice. To the control group, PBS was administered in the same amount as in the tested group.

AIDS virus [4] = assay: Anti-AIDS virus activities (general statements, test not specified); set-up: species or system HIV (human immunodeficiency virus); details: general findings of the inventors
[5] = test system: AIDS virus (virus derived from Tall-1/HTLV-III) in Molt-4/cl. No. 8 cells; assay: Anti-AIDS virus activities, reverse transcriptase activities (Molt-4/cl. No. 8 cells); format: cell-based, HIV (human immunodeficiency virus)
Experimental: Virus derived from Tall-1/HTLV-III were adsorbed on Molt-4/cl. No. 8 cells. Then, the cells were washed with a culture medium to remove virus not adsorbed on the cells. The cells thus obtained were subjected to the following test.
[…] Culturing was conducted for 8 days, and cytopathic effects (CPE) by virus were observed. Further, on the 8th day, the supernatant of the culture medium was sampled and subjected to the measurement of reverse transcriptase activities. The cells were subjected to an indirect immunofluorescence assay to detect the virus antigen.
The anti-AIDS virus activities were studied with respect to the sulfates of scleroglucan and pendulan thus obtained, in accordance with the method as used in Example 1(3).
Schizophyllans having different molecular weights were sulfated in accordance with method A in Example 1 (polysaccharide: 0.5 g; pyridine/sulfuric anhydride complex: 5 g; reaction time: 5 hours). The anti-AIDS virus activities were studied with respect to the polysaccharide sulfates thus obtained, in accordance with the method as described in Example 1(3). As the control, dextran sulfate was used.

AIDS virus in MT-4 cells = assay: Anti-AIDS virus activities, reverse transcriptase activities (MT-4 cells); format: cell-based, HIV (human immunodeficiency virus); details: 10 days, virus (-) 2481, virus (+) 348764
Experimental: Further, anti-AIDS virus activities of schizophyllan sulfates were studied by using MT-4 cells. Cells were prepared in the same manner as in Example 1(3), and into each well, 1 ml of a cell suspension containing 14×10^4 cells/ml, 1 ml of a culture medium and a sample solution were added, followed by culturing for 10 days. The anti-AIDS virus activities of schizophyllan sulfates were studied by the observation of the cytopathic effects, by the measurement of reverse transcriptase activities and by the indirect immunofluorescence assay.

[6] = test system: AIDS virus in human peripheral lymphocytes; assay: Anti-AIDS virus activities in a human peripheral blood lymphocytes system, reverse transcriptase activities; format: cell-based, HIV (human immunodeficiency virus); details: Case 2, 100 μg/ml
Experimental: In the foregoing Examples, the anti-AIDS virus activities of schizophyllan sulfates were studied in a subcultured cell line. In this Example, a test was conducted for the effects of schizophyllan sulfates for suppressing proliferation of AIDS virus in a human peripheral lymphocytes system. Lymphocytes were separated from peripheral blood of an AIDS patient by Ficoll-Paque Separation, washed three times with a serum-free culture medium and suspended in a culture medium containing 10% of FCS. Adsorbable cells were removed, and suspended cells were collected and suspended in a culture medium. Then, PHA and IL-2 were added thereto. Healthy human lymphocytes were prepared 3 days ahead by the above-mentioned method. Into each well of a microplate having 24 wells, 10^6 /1 ml of patient's lymphocytes, a culture medium, 10^6 /1 ml of healthy human lymphocytes and a schizophyllan sulfate solution were introduced, mixed and cultured. On the seventh day and eleventh day after initiation of the culturing, the supernatant was sampled and subjected to the measurement of reverse transcriptase activities. Into each well, a sampled supernatant and the same amount of a culture medium were introduced and culturing was continued.

For k-carrageenan, the “inhibition of the reverse transcriptase of AIDS virus” value (“inhibition … of AIDS virus” below) [1] is listed as “have similar physiological activities”.
For λ-carrageenan, the “inhibition … of AIDS virus” value [1] is listed as “have similar physiological activities”.
For interferon, the “anti-AIDS virus activities” value (AIDS virus [2]) is given as “known to exibit anti-AIDS effects”.
For Schizophyllan, the “mitogenic activities” value [3] was “not observed”, the “Mitogenic activities, Count (CPM), control” value ([3]; control substances, concentration not stated (printed under the 100 μg/ml column), Table 2) was 1981 ± 184 CPM and the “Control rate (%) (tumor inhibition rate)” value (Sarcoma 180 cells; 0.05 ml of 0.5% PBS solution, rear femoral muscle, 30 days) was 99.0%. The “Average weight (g) of tumor (wt ± S.E.)” value (Sarcoma 180 cells; 0.05 ml of 0.5% PBS solution, rear femoral muscle, 30 days, PBS control 4.07) was 0.04 ± 0.016 g and the “anti-tumor activities” value (Sarcoma 180 cells; mouse, in vivo) was “having anti-tumor activities”.
In the case of heparin, the “inhibition … of AIDS virus” value [1] is listed as “have similar physiological activities”.
For NC(=O)c1ncn([C@@H]2O[C@H](CO)[C@@H](O)[C@H]2O)n1 [ribavirin], the “anti-AIDS virus activities” value (AIDS virus [2]) is listed as “known to exibit anti-AIDS effects”.
For chondroitin sulfate, the “inhibition … of AIDS virus” value [1] is given as “have similar physiological activities”.
In the case of Cc1ccc(C(=O)Nc2ccc(S(=O)(=O)O)c3cc(S(=O)(=O)O)cc(S(=O)(=O)O)c23)cc1NC(=O)c1cccc(NC(=O)Nc2cccc(C(=O)Nc3cc(C(=O)Nc4ccc(S(=O)(=O)O)c5cc(S(=O)(=O)O)cc(S(=O)(=O)O)c45)ccc3C)c2)c1 [suramin], the “anti-AIDS virus activities” value (AIDS virus [2]) is given as “known to exibit anti-AIDS effects”.
For lentinan sulfate, the “anti-AIDS virus activities” value (AIDS virus [4]) was “have anti-AIDS virus activities”.
With Dextran sulfate the “Reverse transcriptase activities (CPM)” value ([5]; 100 μg/ml, Molt-4/cl. No. 8 cells, 8 days, Table 3, virus (-) 199, virus (+) 27557) was 1947 ± 64 CPM, the “Reverse transcriptase activities (CPM)” value ([5]; 100 μg/ml, Table 8, virus (-) 621, virus (+) 51344) was 1781 ± 169 CPM and the “Reverse transcriptase activities (CPM)” value ([5]; 100 μg/ml, Table 9, virus (-) 854, virus (+) 49291) was 1738 ± 251 CPM. For the same compound, the “Reverse transcriptase activities (CPM)” value ([5]; 500 μg/ml, Molt-4/cl. No. 8 cells, 8 days, Table 3, virus (-) 199, virus (+) 27557) was 703 ± 56 CPM, the “Reverse transcriptase activities (CPM)” value ([5]; 500 μg/ml, Table 8, virus (-) 621, virus (+) 51344) was 923 ± 32 CPM and the “Reverse transcriptase activities (CPM)” value ([5]; 500 μg/ml, Table 9, virus (-) 854, virus (+) 49291) was 923 ± 87 CPM. For the same compound, the “Reverse transcriptase activities (CPM)” value (AIDS virus in MT-4 cells; 100 μg/ml) was 22317 ± 4502 CPM, the “Reverse transcriptase activities (CPM)” value (AIDS virus in MT-4 cells; 500 μg/ml) was 18501 ± 2249 CPM and the “Reverse transcriptase activities (CPM)” value ([6]; 7th day, no addition 2872) was 1789 ± 53 CPM. For the same compound, the “Reverse transcriptase activities (CPM)” value ([6]; 11th day, no addition 80436) was 42792 ± 14582 CPM, the “Reverse transcriptase activities (CPM)” value ([6]; 18th day, no addition 67665) was 280741 ± 31039 CPM and the “anti-AIDS virus activities” value (AIDS virus [4]) was “stronger activities than the sulfates of e.g. mannan, pullulan and alginic acid; also recorded: have anti-AIDS virus activities”. The “anti-AIDS virus activities” value (AIDS virus [2]) was “have anti-AIDS virus activities”.
For .iota.-carrageenan, the “inhibition … of AIDS virus” value [1] is listed as “have similar physiological activities”.
In the case of dextran, the “anti-AIDS virus activities” value (AIDS virus [2]) is listed as “having no anti-AIDS virus activities”.
